Laboratory results from US20070099259A1, “ELECTROCHEMICAL ASSAY FOR THE IDENTIFICATION OF MICROORGANISMS” (RAPID LABORATORY MICROSYSTEMS INC., priority 2003, published 2007).
Read-outs that look alike come from different tables or passages of the source.

Key:
E. coli HB101 = experiment: Relative respiratory activity with 22 effectors (Example 3); format: cell-based; conditions: Escherichia coli
Text: (§1) In this example, each microorganism is subjected to 22 different effector compounds in addition to control measurements. […] For each microorganism, duplicate measurements were made of 22 different effector compounds. In addition, duplicate measurements were made a control test containing no effector compound. One additional measurement was made of a control solution containing the microorganism with ferricyanide but without effector or DCIP.
(§2) In this example, each normalized data set containing duplicate measurements for each of 22 effector compounds is referenced to the duplicate internal controls to allow batch-to-batch comparison. The obtained signals of charge per unit electrode area for the duplicate control measurements are averaged and set at 100% respiratory cycle activity. […] The data set used to generate pattern recognition plots consists of 5 replicate batches (each batch containing duplicate measurements for each of 22 effector compounds) for each cell culture (10 strains). This is used to generate a 50 (columns)×22 (rows) matrix. The matrix is imported into MATLAB (Version 6.0). Factor analysis is performed using the MATLAB Chemometric Toolbox (Version 2.3) and involves the generation of reduced eigenvectors to determine the optimal number of factors, examination of the resulting residuals plots for randomness, and the generation of scores for the first four principle components.

E. coli B = experiment: as above; format: cell-based; conditions: Escherichia coli; effector 10 mM, 5 μM DCIP, no effector = 100%, n = 10; read-out: relative %-respiratory activity
Text: as §1, §2

E. coli Neotype = experiment: as above; format: cell-based; conditions: Escherichia coli; effector 10 mM, 5 μM DCIP, no effector = 100%, n = 26; read-out: relative %-respiratory activity
Text: as §1, §2

E. coli JM105 = experiment: as above; format: cell-based; conditions: Escherichia coli
Text: as §1, §2

S. cerevisiae = experiment: as above; format: cell-based, Saccharomyces cerevisiae; conditions: Saccharomyces cerevisiae, read-out: relative %-respiratory activity
Text: as §1, §2

P. vulgaris ATCC6380 = experiment: as above; format: cell-based, Proteus vulgaris; conditions: Proteus vulgaris
Text: as §1, §2

E. aerogenes ATCC13048e = experiment: as above; format: cell-based, Enterobacter aerogenes; conditions: Klebsiella aerogenes, ATCC13048E, read-out: relative %-respiratory activity
Text: as §1, §2

[1] = test system: Enterobacter aerogenes ATCC 13048e; experiment: Respiration assay (Example 1), electrochemical ferricyanide/DCIP mediator consumption; format: cell-based; conditions: effector 10 mM; for slope: 5 μM DCIP, 50 mM ferricyanide, 35° C.; for normalized slope: area normalized; for relative activity: buffer set as 100%
Protocol: (§3) The ferricyanide solution is added so that the final ferricyanide concentrations is 50 mM.
(§4) The bacterial suspensions were adjusted to a MacFarland Standard of 5.0 (5.0×10sup.8 cfu/mL) or an optical density of 1.2 measured at 625 nm and cell growth was stopped by cooling the bacterial suspension for a minimum of 15 min in an ice-bath.

[2] = test system: Staphylococcus aureus ATCC 6538P; experiment: as above; format: cell-based; conditions: effector 10 mM; for slope: 5 μM DCIP, 50 mM ferricyanide, 35° C.; for normalized slope: area normalized; for relative activity: buffer set as 100%
Protocol: as §3, §4

P. aeruginosa = experiment: Relative respiratory activity with 22 effectors (Example 3); format: cell-based, Pseudomonas aeruginosa; conditions: Pseudomonas aeruginosa, read-out: relative %-respiratory activity
Text: as §1, §2

S. aureus ATCC6538P = experiment: as above; format: cell-based, Staphylococcus aureus; conditions: Staphylococcus aureus, ATCC6538P, read-out: relative %-respiratory activity
Text: as §1, §2

E. faecalis = experiment: as above; format: cell-based, Enterococcus faecalis; conditions: Enterococcus faecalis, read-out: relative %-respiratory activity
Text: as §1, §2

[3] = HB101, effector 10 mM, 5 μM DCIP, no effector = 100%, n = 18, read-out: relative %-respiratory activity
[4] = JM105, effector 10 mM, 5 μM DCIP, no effector = 100%, n = 10, read-out: relative %-respiratory activity
[5] = effector 10 mM, 5 μM DCIP, no effector = 100%, n = 10
[6] = ATCC6380, effector 10 mM, 5 μM DCIP, no effector = 100%, n = 20, read-out: relative %-respiratory activity
[7] = effector 10 mM, 5 μM DCIP, no effector = 100%, n = 26
[8] = effector 10 mM, 5 μM DCIP, no effector = 100%, n = 18
[9] = effector 10 mM, 5 μM DCIP, no effector = 100%, n = 20

SMILES | activity at 10000 µM (E. coli HB101; [3]) | activity at 10000 µM (E. coli B) | activity at 10000 µM (E. coli Neotype) | activity at 10000 µM (E. coli JM105; [4]) | activity at 10000 µM (S. cerevisiae; [5]) | activity at 10000 µM (P. vulgaris ATCC6380; [6]) | activity at 10000 µM (E. aerogenes ATCC13048e; [7]) | slope [1] | normalized slope [1] | relative activity [1] | slope [2] | normalized slope [2] | relative activity [2] | activity at 10000 µM (P. aeruginosa; [8]) | activity at 10000 µM (S. aureus ATCC6538P; [9]) | activity at 10000 µM (E. faecalis; [9]) | further results
CC(=O)C(=O)O [Pyruvic acid] | 169% | 120% | 126% | 249% | 109% | 344% | 209% | 23.4 μC/min | 13.7 μC/min*mm^2 | 143% | 14.8 μC/min | 8.7 μC/min*mm^2 | 164% | 125% | 313% | 136% | –
CC(O)C(=O)O (stereo not drawn) [Lactic acid, lactic acid] | 171% | 192% | 126% | 303% | 123% | 457% | 182% | 27.7 μC/min | 16.3 μC/min*mm^2 | 169% | 24.8 μC/min | 14.6 μC/min*mm^2 | 275% | 122% | 622% | 118% | –
O=[N+]([O-])[O-].[K+] [nitrate, potassium nitrate] | – | – | – | – | – | – | – | 3.7 μC/min | 2.2 μC/min*mm^2 | 23% | 6.9 μC/min | 4.1 μC/min*mm^2 | 76% | – | – | – | –
N=C(N)NCCC[C@H](N)C(=O)O [L-arginine] | – | 137% | 114% | – | – | – | – | – | – | – | 9.1 μC/min | 5.3 μC/min*mm^2 | 100% | – | – | – | activity at 10000 µM (E. coli HB101; HB101, read-out: relative %-respiratory activity): 114%; activity at 10000 µM (E. coli JM105; JM105, read-out: relative %-respiratory activity): 163%; activity at 10000 µM (S. cerevisiae): 139%; activity at 10000 µM (P. vulgaris ATCC6380; ATCC6380, read-out: relative %-respiratory activity): 149%; activity at 10000 µM (E. aerogenes ATCC13048e): 129%; activity at 10000 µM (P. aeruginosa): 155%; activity at 10000 µM (S. aureus ATCC6538P): 132%; activity at 10000 µM (E. faecalis): 130%
